System: MV-4-11 cells
Experiment: Gene expression microarray analysis (Affymetrix PrimeView) and GSEA
Assay type: cell-based, human
Design: RFU PODN (11730768_x_at) / Fold change /veh PODN (11730768_x_at) / RFU LINC00158 (11744669_a_at) / Fold change /veh LINC00158 (11744669_a_at) / RFU DUSP10 (11751237_a_at) / Fold change /veh DUSP10 (11751237_a_at) / RFU ID3 (11757404_x_at) / Fold change /veh ID3 (11757404_x_at) / RFU PLEKHG5 (11737974_s_at) / Fold change /veh PLEKHG5 (11737974_s_at) / RFU LRRC4B (11730491_at) / Fold change /veh LRRC4B (11730491_at) / RFU GIMAP4 (11747438_a_at) / Fold change /veh GIMAP4 (11747438_a_at) / RFU KRT8 (11758183_x_at) / Fold change /veh KRT8 (11758183_x_at) / RFU CNN1 (11734310_a_at) / Fold change /veh CNN1 (11734310_a_at) / RFU VPS37D (11726825_at) / Fold change /veh VPS37D (11726825_at) / RFU C10orf10 (11716522_x_at) / Fold change /veh C10orf10 (11716522_x_at) / RFU KIR2DL2 /// KIR2DL4 /// KIR2DL5A /// KIR2DL5B /// KIR2DS1 /// KIR2DS2 /// KIR2DS3 /// KIR2DS4 /// KIR3DL3 /// KIR3DL3 /// KIR3DS1 (11738374_at) / Fold change /veh KIR2DL2 /// KIR2DL4 /// KIR2DL5A /// KIR2DL5B /// KIR2DS1 /// KIR2DS2 /// KIR2DS3 /// KIR2DS4 /// KIR3DL3 /// KIR3DL3 /// KIR3DS1 (11738374_at) / RFU C1QL1 (11718748_at) / Fold change /veh C1QL1 (11718748_at) / RFU TMPRSS4 (11747572_a_at) / Fold change /veh TMPRSS4 (11747572_a_at) / RFU HAMP (11756126_x_at) / Fold change /veh HAMP (11756126_x_at) / RFU RNFT2 (11725882_a_at) / Fold change /veh RNFT2 (11725882_a_at) / RFU NR4A2 (11747474_a_at) / Fold change /veh NR4A2 (11747474_a_at) / RFU ABCC12 (11746883_a_at) / Fold change /veh ABCC12 (11746883_a_at) / RFU TMEM136 (11760407_x_at) / Fold change /veh TMEM136 (11760407_x_at) / RFU CLDN22 /// WWC2 (11732394_at) / Fold change /veh CLDN22 /// WWC2 (11732394_at) / RFU HLA-DPB1 (11760878_x_at) / Fold change /veh HLA-DPB1 (11760878_x_at) / RFU SPINT1 (11716480_a_at) / Fold change /veh SPINT1 (11716480_a_at) / RFU GAP43 (11754022_s_at) / Fold change /veh GAP43 (11754022_s_at) / RFU A4GNT (11735810_at) / Fold change /veh A4GNT (11735810_at) / RFU PRB3 (11715151_x_at) / Fold change /veh PRB3 (11715151_x_at) / RFU TUBB4B (11761932_at) / Fold change /veh TUBB4B (11761932_at) / RFU CAPN14 (11732068_a_at) / Fold change /veh CAPN14 (11732068_a_at) / RFU TMCC2 (11721928_a_at) / Fold change /veh TMCC2 (11721928_a_at) / RFU IRGQ (11745062_a_at) / Fold change /veh IRGQ (11745062_a_at) / RFU FAM174B (11720279_a_at) / Fold change /veh FAM174B (11720279_a_at) / RFU TMPRSS4 (11748680_a_at) / Fold change /veh TMPRSS4 (11748680_a_at) / RFU FAM212B (11763350_a_at) / Fold change /veh FAM212B (11763350_a_at) / RFU PLEKHG5 (11743358_a_at) / Fold change /veh PLEKHG5 (11743358_a_at) / RFU ZSCAN30 (11745921_a_at) / Fold change /veh ZSCAN30 (11745921_a_at) / RFU CMKLR1 (11741424_a_at) / Fold change /veh CMKLR1 (11741424_a_at) / RFU LOC101060620 /// MAPK8IP1 (11723275_at) / Fold change /veh LOC101060620 /// MAPK8IP1 (11723275_at) / RFU SPTSSB (11747773_x_at) / Fold change /veh SPTSSB (11747773_x_at) / RFU PRSS12 (11739890_at) / Fold change /veh PRSS12 (11739890_at) / RFU BIN1 (11741810_x_at) / Fold change /veh BIN1 (11741810_x_at) / RFU WNT11 (11732464_a_at) / Fold change /veh WNT11 (11732464_a_at) / RFU C10orf10 (11716521_a_at) / Fold change /veh C10orf10 (11716521_a_at) / RFU C5orf56 (11738089_at) / Fold change /veh C5orf56 (11738089_at) / RFU CYB561 (11721691_x_at) / Fold change /veh CYB561 (11721691_x_at) / RFU ANKRD19P (11752326_a_at) / Fold change /veh ANKRD19P (11752326_a_at) / RFU OR2T12 /// OR2T33 /// OR2T8 (11738714_s_at) / Fold change /veh OR2T12 /// OR2T33 /// OR2T8 (11738714_s_at) / RFU VCAN (11748164_a_at) / Fold change /veh VCAN (11748164_a_at) / RFU JSRP1 (11732532_at) / Fold change /veh JSRP1 (11732532_at) / RFU KRTAP10-11 (11738290_x_at) / Fold change /veh KRTAP10-11 (11738290_x_at) / RFU MYO3A (11730013_a_at) / Fold change /veh MYO3A (11730013_a_at) / RFU EBF3 (11725865_a_at) / Fold change /veh EBF3 (11725865_a_at) / RFU CAMK2N1 (11719241_x_at) / Fold change /veh CAMK2N1 (11719241_x_at) / RFU C5orf56 (11738088_a_at) / Fold change /veh C5orf56 (11738088_a_at) / RFU OLFML3 (11715873_a_at) / Fold change /veh OLFML3 (11715873_a_at) / RFU LOC100653217 /// NTM (11731650_a_at) / Fold change /veh LOC100653217 /// NTM (11731650_a_at) / RFU MAPK11 (11762145_a_at) / Fold change /veh MAPK11 (11762145_a_at) / RFU FIZ1 (11724087_x_at) / Fold change /veh FIZ1 (11724087_x_at) / RFU OASL (11726364_x_at) / Fold change /veh OASL (11726364_x_at) / RFU SOX15 (11748057_x_at) / Fold change /veh SOX15 (11748057_x_at) / RFU CD79A (11719716_a_at) / Fold change /veh CD79A (11719716_a_at) / RFU HIST1H1D (11736915_at) / Fold change /veh HIST1H1D (11736915_at) / RFU CASKIN2 (11723855_a_at) / Fold change /veh CASKIN2 (11723855_a_at) / RFU LOC730098 (11760151_x_at) / Fold change /veh LOC730098 (11760151_x_at) / RFU OR4N2 (11742367_at) / Fold change /veh OR4N2 (11742367_at) / RFU PRRT2 (11749266_a_at) / Fold change /veh PRRT2 (11749266_a_at) / RFU SNX32 (11753110_a_at) / Fold change /veh SNX32 (11753110_a_at) / RFU CDHR5 (11726645_a_at) / Fold change /veh CDHR5 (11726645_a_at) / RFU RCAN1 (11760418_a_at) / Fold change /veh RCAN1 (11760418_a_at) / RFU FAM167A (11723789_a_at) / Fold change /veh FAM167A (11723789_a_at) / RFU FAM26E (11764081_at) / Fold change /veh FAM26E (11764081_at) / RFU ISYNA1 (11749810_s_at) / Fold change /veh ISYNA1 (11749810_s_at) / RFU ACY1 (11761880_at) / Fold change /veh ACY1 (11761880_at) / RFU 11764098_at / Fold change /veh 11764098_at / RFU SAMD14 (11745864_x_at) / Fold change /veh SAMD14 (11745864_x_at) / RFU NPB (11741838_a_at) / Fold change /veh NPB (11741838_a_at) / RFU TMPRSS6 (11731388_a_at) / Fold change /veh TMPRSS6 (11731388_a_at) / RFU KRTAP10-2 (11738614_at) / Fold change /veh KRTAP10-2 (11738614_at) / RFU ARHGAP8 /// PRR5-ARHGAP8 (11727945_x_at) / Fold change /veh ARHGAP8 /// PRR5-ARHGAP8 (11727945_x_at) / RFU KRTAP5-7 /// NADSYN1 (11734609_at) / Fold change /veh KRTAP5-7 /// NADSYN1 (11734609_at) / RFU RASL12 (11751679_a_at) / Fold change /veh RASL12 (11751679_a_at) / RFU CDKN2B (11736163_a_at) / Fold change /veh CDKN2B (11736163_a_at) / RFU PRF1 (11729649_at) / Fold change /veh PRF1 (11729649_at) / RFU, ZNF638 /// ZNF638-IT1 / Fold change vs veh, ZNF638 /// ZNF638-IT1 / RFU, PANK3 / Fold change vs veh, PANK3 / RFU, SH3YL1 / Fold change vs veh, SH3YL1 / RFU, ZEB2 / Fold change vs veh, ZEB2 / RFU, NRIP1 / Fold change vs veh, NRIP1 / RFU, PTTG1IP / Fold change vs veh, PTTG1IP / RFU, CAPN2 / Fold change vs veh, CAPN2 / RFU, MED14 / Fold change vs veh, MED14 / RFU, SNORA58 / Fold change vs veh, SNORA58 / RFU, C1orf63 / Fold change vs veh, C1orf63 / RFU, LRRFIP1 / Fold change vs veh, LRRFIP1 / RFU, NDUFAF7 / Fold change vs veh, NDUFAF7 / RFU, SLC12A2 / Fold change vs veh, SLC12A2 / RFU, IBTK / Fold change vs veh, IBTK / RFU, ESF1 / Fold change vs veh, ESF1 / Fold change vs veh, TMEM50B / RFU, TAOK1 / Fold change vs veh, TAOK1 / RFU, ACBD3 / Fold change vs veh, ACBD3 / RFU, TMA16 / Fold change vs veh, TMA16 / RFU, RWDD3 / Fold change vs veh, RWDD3 / RFU, BCAT1 / Fold change vs veh, BCAT1 / RFU, EDEM3 / Fold change vs veh, EDEM3 / RFU, TMEM33 / Fold change vs veh, TMEM33 / RFU, WDR75 / Fold change vs veh, WDR75 / RFU, AHCTF1 / Fold change vs veh, AHCTF1 / RFU, TFRC / Fold change vs veh, TFRC / RFU, ZDHHC17 / Fold change vs veh, ZDHHC17 / RFU, NOM1 / Fold change vs veh, NOM1 / RFU, ARL8B / Fold change vs veh, ARL8B / RFU, ZBTB11 / Fold change vs veh, ZBTB11 / RFU, TAMM41 / Fold change vs veh, TAMM41 / RFU, KIAA1704 /// LOC100996395 / Fold change vs veh, KIAA1704 /// LOC100996395 / RFU, ING1 / Fold change vs veh, ING1 / RFU, TRMT61B / Fold change vs veh, TRMT61B / RFU, FUBP3 / Fold change vs veh, FUBP3 / RFU, TP53 / Fold change vs veh, TP53 / RFU, TNKS2 / Fold change vs veh, TNKS2 / RFU, ZFP14 / Fold change vs veh, ZFP14 / RFU, ACTR2 / Fold change vs veh, ACTR2 / RFU, PPP3R1 / Fold change vs veh, PPP3R1 / RFU, PIK3R1 / Fold change vs veh, PIK3R1 / RFU, HNRNPA1 / Fold change vs veh, HNRNPA1 / RFU, RNF170 / Fold change vs veh, RNF170 / RFU, ZNF28 / Fold change vs veh, ZNF28 / RFU, RNGTT / Fold change vs veh, RNGTT / RFU, OGT / Fold change vs veh, OGT / RFU, BRD1 / Fold change vs veh, BRD1 / RFU, MARS / Fold change vs veh, MARS / RFU, ZNF655 / Fold change vs veh, ZNF655 / RFU, FAHD1 / Fold change vs veh, FAHD1 / RFU, BDP1 / Fold change vs veh, BDP1 / RFU, LRRCC1 / Fold change vs veh, LRRCC1 / RFU, ARID1A / Fold change vs veh, ARID1A / RFU, ZNF146 / Fold change vs veh, ZNF146 / RFU, ZNF330 / Fold change vs veh, ZNF330 / RFU, GPN3 / Fold change vs veh, GPN3 / RFU, C9orf123 / Fold change vs veh, C9orf123 / RFU, N4BP2L2 / Fold change vs veh, N4BP2L2 / RFU, ARFIP1 / Fold change vs veh, ARFIP1 / RFU, FAM179B / Fold change vs veh, FAM179B / RFU, BCL10 / Fold change vs veh, BCL10 / RFU, UHRF1BP1L / Fold change vs veh, UHRF1BP1L / RFU, BET1 / Fold change vs veh, BET1 / RFU, CNOT2 / Fold change vs veh, CNOT2 / RFU, ZNF268 / Fold change vs veh, ZNF268 / Fold change vs veh, ZNF507 / RFU, DGCR2 / Fold change vs veh, DGCR2 / RFU, WDSUB1 / Fold change vs veh, WDSUB1 / Fold change vs veh, HSP90B1 /// MIR3652 / RFU, ADSS / Fold change vs veh, ADSS / RFU, GK / Fold change vs veh, GK / RFU, ZNF148 / Fold change vs veh, ZNF148 / RFU, TAF9 / Fold change vs veh, TAF9 / RFU, SLC1A5 / Fold change vs veh, SLC1A5 / RFU, SLMO2 / Fold change vs veh, SLMO2 / RFU, ABCC4 / Fold change vs veh, ABCC4 / RFU, LOC101060439 /// RAP1B / Fold change vs veh, LOC101060439 /// RAP1B / RFU, RFX7 / Fold change vs veh, RFX7 / RFU, GTPBP10 / Fold change vs veh, GTPBP10 / RFU, CNEP1R1 / Fold change vs veh, CNEP1R1 / RFU, BIVM-ERCC5 /// ERCC5 / Fold change vs veh, BIVM-ERCC5 /// ERCC5 / RFU, ILF3 / Fold change vs veh, ILF3 / RFU 11762660_at / Fold change /veh 11762660_at / RFU VCAN (11757783_s_at) / Fold change /veh VCAN (11757783_s_at) / RFU DDX43 (11728927_at) / Fold change /veh DDX43 (11728927_at) / RFU KRT8 (11758188_x_at) / Fold change /veh KRT8 (11758188_x_at) / RFU NKD1 (11759106_at) / Fold change /veh NKD1 (11759106_at) / RFU SRD5A1 (11742802_a_at) / Fold change /veh SRD5A1 (11742802_a_at) / RFU TPSAB1 /// TPSB2 (11721975_s_at) / Fold change /veh TPSAB1 /// TPSB2 (11721975_s_at) / RFU GSTM3 (11746129_a_at) / Fold change /veh GSTM3 (11746129_a_at) / RFU IL23R (11737362_x_at) / Fold change /veh IL23R (11737362_x_at) / RFU TMEM51 (11727254_a_at) / Fold change /veh TMEM51 (11727254_a_at) / RFU PIWIL2 (11732686_x_at) / Fold change /veh PIWIL2 (11732686_x_at) / RFU ORM1 (11744905_x_at) / Fold change /veh ORM1 (11744905_x_at) / RFU CCDC152 (11743942_at) / Fold change /veh CCDC152 (11743942_at) / RFU ECM1 (11717891_a_at) / Fold change /veh ECM1 (11717891_a_at) / RFU IL23R (11748794_a_at) / Fold change /veh IL23R (11748794_a_at) / RFU TNFAIP8L3 (11732012_x_at) / Fold change /veh TNFAIP8L3 (11732012_x_at) / RFU MBOAT4 (11741988_at) / Fold change /veh MBOAT4 (11741988_at) / RFU 11764193_at / Fold change /veh 11764193_at / RFU TMEM53 (11763286_at) / Fold change /veh TMEM53 (11763286_at) / RFU MAGEB2 (11727129_at) / Fold change /veh MAGEB2 (11727129_at) / RFU TMEM200A (11744735_a_at) / Fold change /veh TMEM200A (11744735_a_at) / RFU CCDC152 (11751479_a_at) / Fold change /veh CCDC152 (11751479_a_at) / RFU FAM211A (11726209_a_at) / Fold change /veh FAM211A (11726209_a_at) / RFU RGS16 (11746705_a_at) / Fold change /veh RGS16 (11746705_a_at) / RFU VCAN (11755009_s_at) / Fold change /veh VCAN (11755009_s_at) / RFU RHOB (11743442_s_at) / Fold change /veh RHOB (11743442_s_at) / RFU RGS16 (11720943_a_at) / Fold change /veh RGS16 (11720943_a_at) / RFU RGS16 (11720944_at) / Fold change /veh RGS16 (11720944_at) / RFU, VPS4B / Fold change vs veh, VPS4B / RFU, CREB1 / Fold change vs veh, CREB1 / RFU, DNAJC13 / Fold change vs veh, DNAJC13 / RFU, GNAQ / Fold change vs veh, GNAQ / RFU, CDK5R1 / Fold change vs veh, CDK5R1 / RFU, ZRANB3 / Fold change vs veh, ZRANB3 / RFU, CUL4A / Fold change vs veh, CUL4A / RFU, CCNY / Fold change vs veh, CCNY / RFU, UFL1 / Fold change vs veh, UFL1 / RFU, COG3 / Fold change vs veh, COG3 / RFU, DIAPH2 / Fold change vs veh, DIAPH2 / RFU, SKA2 / Fold change vs veh, SKA2 / RFU, AFF3 / Fold change vs veh, AFF3 / RFU, LMF1 / Fold change vs veh, LMF1 / RFU, IPO11 / Fold change vs veh, IPO11 / RFU, DFFB / Fold change vs veh, DFFB / RFU, FOXP1 / Fold change vs veh, FOXP1 / RFU, CARD8 / Fold change vs veh, CARD8 / RFU, STRN3 / Fold change vs veh, STRN3 / RFU, ADK / Fold change vs veh, ADK / RFU, RASSF2 / Fold change vs veh, RASSF2 / RFU, WIPF1 / Fold change vs veh, WIPF1 / RFU, LARP1B / Fold change vs veh, LARP1B / RFU, RASA1 / Fold change vs veh, RASA1 / RFU, RB1 / Fold change vs veh, RB1 / RFU, PPFIA1 / Fold change vs veh, PPFIA1 / RFU, MAT2A / Fold change vs veh, MAT2A / RFU, CCT5 / Fold change vs veh, CCT5 / RFU, WDR92 / Fold change vs veh, WDR92 / RFU, CUX1 / Fold change vs veh, CUX1 / RFU, TTC7A / Fold change vs veh, TTC7A / RFU, TMEM135 / Fold change vs veh, TMEM135 / RFU, DEPTOR / Fold change vs veh, DEPTOR / RFU, CPM / Fold change vs veh, CPM / RFU, DNAJB6 / Fold change vs veh, DNAJB6 / RFU, CACNA2D3 / Fold change vs veh, CACNA2D3 / RFU, DTX4 / Fold change vs veh, DTX4 / RFU, TFCP2 / Fold change vs veh, TFCP2 / RFU, GMCL1 /// GMCL1P1 / Fold change vs veh, GMCL1 /// GMCL1P1 / RFU, AEBP2 / Fold change vs veh, AEBP2 / RFU, SNHG1 /// SNORD22 /// SNORD25 /// SNORD26 /// SNORD27 /// SNORD28 /// SNORD29 /// SNORD31 / Fold change vs veh, SNHG1 /// SNORD22 /// SNORD25 /// SNORD26 /// SNORD27 /// SNORD28 /// SNORD29 /// SNORD31 / Fold change (Aza/veh), C12orf56 (ProbeSet 11735607_a_at) / Fold change (ACY-1035/veh), C12orf56 (ProbeSet 11735607_a_at) / Fold change (Aza/veh), FGFR1OP (ProbeSet 11751329_s_at) / Fold change (ACY-1035/veh), FGFR1OP (ProbeSet 11751329_s_at) / Fold change (Aza/veh), VPS36 (ProbeSet 11739960_a_at) / Fold change (ACY-1035/veh), VPS36 (ProbeSet 11739960_a_at) / RFU SYPL1 (11715823_x_at) / Fold change /veh SYPL1 (11715823_x_at) / RFU IGFBP7 (11715501_s_at) / Fold change /veh IGFBP7 (11715501_s_at) / RFU REEP3 (11722064_at) / Fold change /veh REEP3 (11722064_at) / RFU IGLL1 (11728026_x_at) / Fold change /veh IGLL1 (11728026_x_at): dose or concentration left out as unconfirmed
Settings: ProbeSet 11724763_s_at; LIST D

Nc1ncn([C@@H]2O[C@H](CO)[C@@H](O)[C@H]2O)c(=O)n1 [azacitidine]
Fold change vs veh, DEPTOR: 0.65

Source: article PMC5218480 (PLoS ONE, 2017)
